{"source": "patent US9229013B2", "about": "“Vasoactive hormone-based stratification of patients suffering from diseases related to endothelial function/dysfunction” (B.R.A.H.M.S GMBH, priority 2009, dated 2016)", "key": {"[1]": {"test_system": "patients with chronic ischemic left ventricular dysfunction", "details": "patients exhibiting a higher pre-treatment plasma NT-proBNP and adrenomedullin (ADM); cited from earlier work"}, "[2]": {"test_system": "patients with severe congestive heart failure in NYHA class IV", "details": "mortality after 6 months; patients stratified by peptide concentrations below and above median; cited from earlier work"}, "[3]": {"test_system": "patients having suffered a myocardial infarction", "assay": "LAMP study (Outcome MACE): hazard ratio medication vs no medication, stratified by biomarker quintile", "format": "in vivo, human", "excerpt": "Suitable threshold levels for the stratification of subjects into different groups (categories) have to be determined for each particular combination of vasoactive hormone or fragments thereof or precursors or fragments thereof, medication and disease. This can e.g. be done by grouping a reference population of patients according to their level of vasoactive hormone into certain quantiles, e.g. tertiles, quartiles, quintiles or even according to suitable percentiles. […] A HR around 1 (e.g. +/−0.1) indicates no elevated risk but also no benefit from medication for the particular group of patients. By comparison of the HR between certain quantiles of patients with each other and with the HR of the overall population of patients, it is possible to identify those quantiles of patients who have an elevated risk and those who benefit from medication and thereby stratify subjects according to the present invention.\n(§1) FIGS. 14 to 21 illustrate the survival rate for patients suffering from myocardial infarction from the “Leicester Acute Myocardial Infarction Peptide Study” (“LAMP”). FIGS. 22 to 34 illustrate the rate of major cardiac events for patients suffering from acute myocardial infarction from “LAMP-Study”.\nThe study involved 983 consecutive patients with acute myocardial infarction (AMI) admitted to the Coronary Care Unit of Leicester Royal Infirmary. […] Acute myocardial infarction was subcategorized into ST-segment elevation myocardial infarction (STEMI) or non-ST-segment myocardial infarction (NSTEMI).\nBlood samples were drawn on 1 occasion 3 to 5 days after the onset of chest pain. After 15 min bed rest, 20 ml blood was collected into tubes containing ethylendiaminetetraacetic acid (EDTA) and aprotinin. All plasma samples were stored at −70° C. until assayed in a blinded fashion in a single batch. In a subgroup of 132 patients from the original 983-patient cohort, blood sampling was performed daily for 5 days from admission to discharge.\n(§2) Survival rates, i.e. the proportion of patients surviving at a given time after entry into the studies, are plotted in the appended figures over time for different combinations of a particular vasoactive hormone with a particular medication. The patients have been stratified into quintiles according to their respective hormone levels. […] For some cases, two or more quintiles have been pooled were appropriate. Hazard ratios (HR) have been calculated for various combinations of particular vasoactive hormones with particular medications. HR have also been calculated for particular quintiles and/or pooled quintiles and compared to overall HR for each combination."}, "[4]": {"test_system": "patients having suffered a myocardial infarction", "assay": "LAMP study (Outcome Death): hazard ratio medication vs no medication, stratified by biomarker quintile", "format": "in vivo, human", "details": "for HR Medicament in Marker-Quantile 1 / HR Medicament in Marker-Quantile 2-4 / HR Medicament in Marker-Quantile 5 / HR Medicament (overall patient group): LAMP, Outcome Death", "excerpt": "Suitable threshold levels for the stratification of subjects into different groups (categories) have to be determined for each particular combination of vasoactive hormone or fragments thereof or precursors or fragments thereof, medication and disease. This can e.g. be done by grouping a reference population of patients according to their level of vasoactive hormone into certain quantiles, e.g. tertiles, quartiles, quintiles or even according to suitable percentiles. […] A HR around 1 (e.g. +/−0.1) indicates no elevated risk but also no benefit from medication for the particular group of patients.\nas §1\nAcute myocardial infarction was subcategorized into ST-segment elevation myocardial infarction (STEMI) or non-ST-segment myocardial infarction (NSTEMI).\nBlood samples were drawn on 1 occasion 3 to 5 days after the onset of chest pain. After 15 min bed rest, 20 ml blood was collected into tubes containing ethylendiaminetetraacetic acid (EDTA) and aprotinin. All plasma samples were stored at −70° C. until assayed in a blinded fashion in a single batch.\nas §2"}}}
{"compound": "COc1ccccc1OCCNCC(O)COc1cccc2[nH]c3ccccc3c12", "note": "(stereo not drawn) [carvedilol]", "values": [{"measurement": "effect on mortality and heart failure", "setting": "[1]", "value": "reduced mortality and heart failure"}]}
{"compound": "CCOC(=O)[C@H](CCc1ccccc1)N[C@@H](C)C(=O)N1CCC[C@H]1C(=O)O", "note": "[elanapril]", "values": [{"measurement": "effect on mortality", "setting": "[2]", "value": "beneficial effect"}]}
{"compound": "O=[N+]([O-])O", "note": "[Nitrate]", "values": [{"measurement": "HR Medicament in Marker-Quantile 1", "setting": "[3]; CT-proAVP 0.3-3.6 pmol/L", "value": 2.8}, {"measurement": "HR Medicament in Marker-Quantile 2-4", "setting": "[3]; CT-proAVP 3.6-18.7 pmol/L", "value": 1.2}, {"measurement": "HR Medicament in Marker-Quantile 5", "setting": "[3]; CT-proAVP 18.7-441 pmol/L", "value": 0.6}, {"measurement": "HR Medicament in Marker-Quantile 1", "setting": "[3]; CT-proET-1 4.6-56.6 pmol/L", "value": 2.4}, {"measurement": "HR Medicament in Marker-Quantile 2-4", "setting": "[3]; CT-proET-1 56.6-118 pmol/L", "value": 0.9}, {"measurement": "HR Medicament in Marker-Quantile 5", "setting": "[3]; CT-proET-1 118-671 pmol/L", "value": 0.9}, {"measurement": "HR Medicament in Marker-Quantile 1", "setting": "[3]; MR-proADM 0.09-0.53 nmol/L", "value": 2.4}, {"measurement": "HR Medicament in Marker-Quantile 2-4", "setting": "[3]; MR-proADM 0.53-1.16 nmol/L", "value": 0.9}, {"measurement": "HR Medicament in Marker-Quantile 5", "setting": "[3]; MR-proADM 1.16-6.95 nmol/L", "value": 1}, {"measurement": "HR Medicament in Marker-Quantile 1", "setting": "[3]; MR-proANP 4.9-65 pmol/L", "value": 3.8}, {"measurement": "HR Medicament in Marker-Quantile 2-4", "setting": "[3]; MR-proANP 65-264 pmol/L", "value": 1}, {"measurement": "HR Medicament in Marker-Quantile 5", "setting": "[3]; MR-proANP 264-1630 pmol/L", "value": 0.8}, {"measurement": "HR Medicament in Marker-Quantile 1", "setting": "[3]; NT-proBNP 0.12-184 pg/mL", "value": 2.4}, {"measurement": "HR Medicament in Marker-Quantile 2-4", "setting": "[3]; NT-proBNP 184-2700 pg/mL", "value": 0.8}, {"measurement": "HR Medicament in Marker-Quantile 5", "setting": "[3]; NT-proBNP 2700-34100 pg/mL", "value": 0.9}, {"measurement": "HR Medicament (overall patient group)", "setting": "[3]; biomarker CT-proAVP", "value": 1.1}, {"measurement": "HR Medicament (overall patient group)", "setting": "[3]; biomarker CT-proET-1", "value": 1.1}, {"measurement": "HR Medicament (overall patient group)", "setting": "[3]; biomarker MR-proADM", "value": 1.1}, {"measurement": "HR Medicament (overall patient group)", "setting": "[3]; biomarker MR-proANP", "value": 1.1}, {"measurement": "HR Medicament (overall patient group)", "setting": "[3]; biomarker NT-proBNP", "value": 1}, {"measurement": "deaths with medication", "setting": "[4]; FIG. 16A, marker CT-proAVP, overall population, n=494 with medication", "value": 23}, {"measurement": "deaths with medication", "setting": "[4]; FIG. 16B, 1st CT-proAVP quintile (0.31-4.6 pmol/L), n=69 with medication", "value": 2}, {"measurement": "deaths with medication", "setting": "[4]; FIG. 16C, 2nd to 4th CT-proAVP quintiles (4.6-42.1 pmol/L), n=318 with medication", "value": 11}, {"measurement": "deaths with medication", "setting": "[4]; FIG. 16D, 5th CT-proAVP quintile (42.1-1040 pmol/L), n=107 with medication", "value": 10}, {"measurement": "HR Medicament in Marker-Quantile 1", "setting": "[4]; CT-ET-1 3.7-65.4 pmol/L", "value": 1}, {"measurement": "HR Medicament in Marker-Quantile 2-4", "setting": "[4]; CT-ET-1 65.4-136 pmol/L", "value": 1}, {"measurement": "HR Medicament in Marker-Quantile 5", "setting": "[4]; CT-ET-1 136-468 pmol/L", "value": 0.3}, {"measurement": "HR Medicament in Marker-Quantile 1", "setting": "[4]; CT-proAVP 0.31-4.6 pmol/L", "value": 4.8}, {"measurement": "HR Medicament in Marker-Quantile 2-4", "setting": "[4]; CT-proAVP 4.6-42.1 pmol/L", "value": 0.7}, {"measurement": "HR Medicament in Marker-Quantile 5", "setting": "[4]; CT-proAVP 42.1-1040 pmol/L", "value": 0.3}, {"measurement": "HR Medicament in Marker-Quantile 1", "setting": "[4]; MR-proANP 14.5-59.6 pmol/L", "value": ">100"}, {"measurement": "HR Medicament in Marker-Quantile 2-4", "setting": "[4]; MR-proANP 59.6-283 pmol/L", "value": 0.9}, {"measurement": "HR Medicament in Marker-Quantile 5", "setting": "[4]; MR-proANP 283-1650 pmol/L", "value": 0.3}, {"measurement": "HR Medicament in Marker-Quantile 1", "setting": "[4]; NT-proBNP 0.12-184 pg/mL", "value": 1.9}, {"measurement": "HR Medicament in Marker-Quantile 2-4", "setting": "[4]; NT-proBNP 184-2700 pg/mL", "value": 0.6}, {"measurement": "HR Medicament in Marker-Quantile 5", "setting": "[4]; NT-proBNP 2700-34100 pg/mL", "value": 0.5}, {"measurement": "HR Medicament (overall patient group)", "setting": "[4]; biomarker CT-ET-1", "value": 0.6}, {"measurement": "HR Medicament (overall patient group)", "setting": "[4]; biomarker CT-proAVP", "value": 0.5}, {"measurement": "HR Medicament (overall patient group)", "setting": "[4]; biomarker MR-proANP", "value": 0.5}, {"measurement": "HR Medicament (overall patient group)", "setting": "[4]; biomarker NT-proBNP", "value": 0.7}]}
